In brackets after ≈: the same amount, converted by molar mass. Marks after values point to notes of the source that are not given here.
Columns and labels:
[1] = biological target: T1, soybean lipoxygenase (LOX) (Glycine max, UniProt P08170); assay: In vitro soybean lipoxygenase (LOX) inhibition; assay type: biochemical; conditions: for IC50: sodium linoleate 0.1 mM, read-out: LOX inhibition (IC50 μM) ± SD
T1 construct: purchased Sigma-Aldrich
T1 sequence (P08170 1-839): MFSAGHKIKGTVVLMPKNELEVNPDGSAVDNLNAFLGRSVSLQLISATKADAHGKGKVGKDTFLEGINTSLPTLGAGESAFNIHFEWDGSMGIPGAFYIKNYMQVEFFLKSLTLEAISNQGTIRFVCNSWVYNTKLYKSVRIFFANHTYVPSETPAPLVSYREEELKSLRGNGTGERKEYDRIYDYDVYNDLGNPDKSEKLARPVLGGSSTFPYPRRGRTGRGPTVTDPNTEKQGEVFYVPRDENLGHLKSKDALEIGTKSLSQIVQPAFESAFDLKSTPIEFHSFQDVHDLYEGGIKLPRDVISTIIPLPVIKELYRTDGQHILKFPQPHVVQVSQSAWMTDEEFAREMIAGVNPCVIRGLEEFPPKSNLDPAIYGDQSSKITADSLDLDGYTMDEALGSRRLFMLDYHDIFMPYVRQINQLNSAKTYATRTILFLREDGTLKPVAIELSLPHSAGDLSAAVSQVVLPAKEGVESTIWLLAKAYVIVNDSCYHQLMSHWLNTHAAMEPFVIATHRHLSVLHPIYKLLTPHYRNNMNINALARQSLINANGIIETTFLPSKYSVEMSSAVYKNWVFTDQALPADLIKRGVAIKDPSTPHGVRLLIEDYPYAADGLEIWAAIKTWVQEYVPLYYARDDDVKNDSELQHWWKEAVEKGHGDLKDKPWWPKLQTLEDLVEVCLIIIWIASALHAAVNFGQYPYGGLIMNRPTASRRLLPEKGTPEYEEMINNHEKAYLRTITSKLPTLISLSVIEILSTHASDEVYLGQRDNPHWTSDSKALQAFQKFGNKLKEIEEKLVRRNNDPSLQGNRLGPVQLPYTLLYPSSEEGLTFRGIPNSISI
Method: In vitro LOX inhibition assay was accomplished as described previously. Test compounds (stock solutions 10 mM in DMSO) were incubated at room temperature with sodium linoleate (0.1 mM) and 0.2 ml of LOX solution (0.1 mg in 10 ml saline). Conversion of sodium linoleate to 13-hydroperoxylinoleic acid was measured at 234 nm and compared to the reference inhibitor. Several concentrations were used for IC50 determination.

[2] = system: Pseudomonas aeruginosa ATCC 9027; assay: MIC determination (broth micro-dilution); assay type: cell-based; conditions: ATCC9027
Procedure, shortened: (§1)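 Compounds from 2 mg/ml stocks in 96% ethanol were serially diluted twofold in Müller–Hinton broth per EUCAST. Inocula came from 18 h cultures on tryptic-soy agar at 30 °C, adjusted in saline to 0.5 McFarland (approximately 3 × 10^6 CFUs/ml). MIC was derived by linear regression of OD570; triplicate means.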

[3] = system: Burkholderia caepacia ATCC 25416; assay: MIC determination (broth micro-dilution); assay type: cell-based; conditions: ATCC25416
Procedure, shortened: as §1

Candida kefyr ATCC 2512 = assay: MIC determination (broth micro-dilution); assay type: cell-based; conditions: Kluyveromyces marxianus, ATCC2512
Procedure, shortened: (§2)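 Per EUCAST recommendations, strains at 0.5 McFarland density in saline were challenged with twofold serial dilutions in Müller–Hinton broth, starting from 2 mg/ml stocks prepared in 96% ethanol. Absorbance at 570 nm after incubation gave MIC through a regression curve.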

[4] = system: Enterococcus faecalis ATCC 29212; assay: MIC determination (broth micro-dilution); assay type: cell-based; conditions: ATCC29212
Procedure, shortened: as §1

[5] = system: Staphylococcus aureus ATCC 25213; assay: MIC determination (broth micro-dilution); assay type: cell-based; conditions: ATCC25213
Procedure, shortened: as §1

[6] = system: Issatchenkia orientalis Kudrjanzev ATCC 6258; assay: MIC determination (broth micro-dilution); assay type: cell-based; conditions: Pichia kudriavzevii, ATCC6258
Procedure, shortened: as §2

[7] = system: Kocuria rhizophila ATCC 9341; assay: MIC determination (broth micro-dilution); assay type: cell-based; conditions: ATCC9341
Procedure, shortened: as §1

[8] = system: Candida albicans ATCC 10231; assay: MIC determination (broth micro-dilution); assay type: cell-based; conditions: ATCC10231
Procedure, shortened: as §2

[9] = system: Bacillus cereus ATCC 11778; assay: MIC determination (broth micro-dilution); assay type: cell-based; conditions: ATCC11778
Procedure, shortened: as §1

[10] = system: Pseudomonas aeruginosa ATCC 27853; assay: MIC determination (broth micro-dilution); assay type: cell-based; conditions: ATCC27853
Procedure, shortened: as §1

[11] = system: Staphylococcus aureus ATCC 6538; assay: MIC determination (broth micro-dilution); assay type: cell-based; conditions: ATCC6538
Procedure, shortened: as §1

[12] = system: Bacillus subtilis ATCC 6633; assay: MIC determination (broth micro-dilution); assay type: cell-based; conditions: ATCC6633
Procedure, shortened: as §1

[13] = system: Candida albicans ATCC 90028; assay: MIC determination (broth micro-dilution); assay type: cell-based; conditions: ATCC90028
Procedure, shortened: as §2

[14] = system: Escherichia coli ATCC 8739; assay: MIC determination (broth micro-dilution); assay type: cell-based; conditions: ATCC8739
Procedure, shortened: as §1

[15] = system: Candida krusei ATCC 14243; assay: MIC determination (broth micro-dilution); assay type: cell-based; conditions: Pichia kudriavzevii, ATCC14243
Procedure, shortened: as §2

[16] = Interaction with 1,1-diphenyl-2-picrylhydrazyl (DPPH); conditions: 100 μΜ
Method: To a solution of DPPH in absolute ethanol, an appropriate volume of the tested compound solution (0.1 mM final concentration) dissolved in DMSO was added. Absorbance was recorded at 517 nm after 20 and 60 min at room temperature (Lambda 20 double beam spectrophotometer, Perkin-Elmer, UK). Experiments were repeated at least in triplicate and the standard deviation of absorbance was less than 10% of the mean[10]. NDGA was used under the same experimental conditions as a reference compound.

S. aureus strains = assay: MIC determination, S. aureus strains; assay type: cell-based, Staphylococcus aureus; conditions: for MIC: Staphylococcus aureus, S. aureus strains, lowest value quoted in text; for MIC range: tested Staphylococcus spp.
Method: Before analysis, compounds 5a–f were dissolved in 96% ethanol in a concentration of 2 mg/ml as stock solutions. Inoculums were prepared with fresh cultures of microbial strains, cultured on tryptic-soy agar or Sabouraud 2% (m/v) dextrose agar for 18 h (48–72 h for fungi) at 30 °C with physiological saline containing approximately […]. Inoculum density (0.5 McFarland units) was adjusted with a bio Mériex (France) densitometer. Minimum inhibitory concentration (MIC) was determined by the twofold micro-dilution method in Mu¨ller–Hinton broth for bacterial strains and RPMI 1640 + 2% m/v dextrose for fungi according to the EUCAST recommendations in a sterile 96-well flat-bottom plastic tissue culture plate. MIC was determined using a linear regression curve after incubation of compounds and reading the optical density at 570 nm using an iEMS microplate reader. […] All tests were performed in triplicate and expressed as the mean.

Row | Compound | MIC [2] [µg/mL] | MIC [3] [µg/mL] | MIC (Candida kefyr ATCC 2512) [µg/mL] | MIC [4] [µg/mL] | MIC [5] [µg/mL] | MIC [6] [µg/mL] | MIC [7] [µg/mL] | MIC [8] [µg/mL] | MIC [9] [µg/mL] | MIC [10] [µg/mL] | MIC [11] [µg/mL] | MIC [12] [µg/mL] | MIC [13] [µg/mL] | MIC [14] [µg/mL] | MIC [15] [µg/mL] | DPPH-reducing ability 20 min [16] | DPPH-reducing ability 60 min [16] | melting point [°C] | IC50 [1] [µM] | also measured
1 | COc1cc(NC(C)CCCNC(=O)NC(CC(C)C)C(=O)NC(c2ccccc2)c2ccccc2)c2ncccc2c1 (stereo not shown) [Compound 5a, N-(diphenylmethyl)-2-[({4-[(6-methoxyquinolin-8-yl)amino]pentyl}carbamoyl)amino]-4-methylpentanamide] | 60 (≈ 103 µM) | 65 (≈ 112 µM) | > 100 | > 100 | 6.5 (≈ 11.2 µM) | > 100 | 25 (≈ 43 µM) | > 100 | 70 (≈ 120 µM) | 25 (≈ 43 µM) | 12.5 (≈ 21.5 µM) | 50 (≈ 85.9 µM) | > 100 | > 100 | > 100 | 6^b % | 5^b % | 184.5 to 185.5 |  | LOX inhibition, per cent ([1]; 100 μΜ (footnotes a, c)): 40.0 ± 1.0^a^,^c per cent; MIC (S. aureus strains): 6.5 µg/mL (≈ 11.2 µM); MIC range (S. aureus strains): 6.5 to 15 µg/mL
2 | COc1cc(NC(C)CCCNC(=O)NC(C(=O)N(C)C(c2ccccc2)c2ccccc2)c2ccccc2)c2ncccc2c1 (stereo not shown) [Compound 5b, N-(diphenylmethyl)-2-[({4-[(6-methoxyquinolin-8-yl)amino]pentyl}carbamoyl)amino]-N-methyl-2-phenylacetamide] | > 100 | > 100 | > 100 | > 100 | 60 (≈ 97.4 µM) | > 100 | > 100 | > 100 | > 100 | > 100 | > 100 | > 100 | > 100 | > 100 | > 100 | 7^b % | 5^b % |  | 69 ± 2 | 
3 | COc1cc(NC(C)CCCNC(=O)NC(C(=O)NC(c2ccccc2)c2ccc(Cl)cc2)c2ccccc2)c2ncccc2c1 (stereo not shown) [Compound 5c, N-[(4-chlorophenyl)(phenyl)methyl]-2-[({4-[(6-methoxyquinolin-8-yl)amino]pentyl}carbamoyl)amino]-2-phenylacetamide] | 50 (≈ 78.6 µM) | 70 (≈ 110 µM) | > 100 | > 100 | > 100 | > 100 | > 100 | > 100 | > 100 | 25 (≈ 39.3 µM) | > 100 | > 100 | > 100 | 60 (≈ 94.3 µM) | > 100 | 2^b % | 2^b % |  | 40 ± 1.5 | 
4 | COc1cc(NC(C)CCCNC(=O)NC(C(=O)NC(c2ccccc2)c2ccccc2)c2ccc(Cl)cc2)c2ncccc2c1 (stereo not shown) [Compound 5d, 2–(4-chlorophenyl)-N-(diphenylmethyl)-2-[({4-[(6-methoxyquinolin-8-yl)amino]pentyl}carbamoyl)amino]acetamide] | 65 (≈ 102 µM) | > 100 | > 100 | > 100 | 12.5 (≈ 19.6 µM) | > 100 | > 100 | > 100 | 50 (≈ 78.6 µM) | 50 (≈ 78.6 µM) | 25 (≈ 39.3 µM) | 65 (≈ 102 µM) | > 100 | 65 (≈ 102 µM) | > 100 | 1^b % | 2^b % | 180 to 183 | 41.5 ± 3.1 | MIC (S. aureus strains): 6.5 µg/mL (≈ 10.2 µM); MIC range (S. aureus strains): 12.5 to 25 µg/mL
5 | COc1cc(NC(C)CCCNC(=O)NC(C(=O)NC(c2ccccc2)c2ccc(Cl)cc2)c2ccc(Cl)cc2)c2ncccc2c1 (stereo not shown) [Compound 5e, 2–(4-chlorophenyl)-N-[(4-chlorophenyl)(phenyl)methyl]-2-[({4-[(6-methoxyquinolin-8-yl)amino]pentyl}carbamoyl)amino]acetamide] | > 100 | > 100 | > 100 | > 100 | > 100 | > 100 | > 100 | > 100 | > 100 | > 100 | > 100 | > 100 | > 100 | 60 (≈ 89.5 µM) | > 100 | 1^b % | 1^b % | 150 to 151.5 | 56 ± 2.3 | 
6 | COc1ccc(C(=NNC(=O)C(NC(=O)NCCCC(C)Nc2cc(OC)cc3cccnc23)c2ccc(Cl)cc2)c2ccccc2)cc1 (stereo not shown) [Compound 5f, 3-[(4-chlorophenyl)({N'-[(4-methoxyphenyl)(phenyl)methylidene]hydrazinecarbonyl})methyl]-1-{4-[(6-methoxyquinolin-8-yl)amino]pentyl}urea] | > 100 | > 100 | > 100 | > 100 | > 100 | > 100 | > 100 | > 100 | > 100 | > 100 | > 100 | > 100 | > 100 | > 100 | > 100 | 2^b % | 2^b % |  | 67.5 ± 1.1 | 
7 | COc1cc(NC(C)CCCN)c2ncccc2c1 (stereo not shown) [PQ, 8-[(4-amino-1-methylbutyl)amino]-6-methoxyquinoline, reference compound] | 70 (≈ 270 µM) | 80 (≈ 308 µM) | 40 (≈ 154 µM) | > 100 | 70 (≈ 270 µM) | > 100 | 50 (≈ 193 µM) | 90 (≈ 347 µM) | 70 (≈ 270 µM) | 65 (≈ 251 µM) | 50 (≈ 193 µM) | 80 (≈ 308 µM) | > 100 | 40 (≈ 154 µM) | > 100 |  |  |  |  | 
